Laboratory results as given in patent US10226453B2, “3-(1H-indol-2-yl)-1H-pyrazolo[4,3-B]pyridines and therapeutic uses thereof” (Samumed, LLC, priority 2015, dated 2019).

Columns and labels:
Format in all cases: cell-based
[1] = system: Wnt activity (Sp5-Luc reporter, SW480 colon carcinoma cells); assay: Wnt activity screening assay: Sp5-Luc reporter gene in SW480 colon carcinoma cells; conditions: Homo sapiens; for EC50: overnight incubation, 10-point curve from 10 μM; for inhibition at 10 µM: given where EC50 >10 μM, read-out: percent inhibition at 10 μM
Method in brief: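 First, hygromycin-selected SW480 Sp5-Luc reporter cells are seeded in medium with 1% fetal bovine serum and exposed overnight to compound (up to 10 μM, 0.1% DMSO). Next, luciferase signal is read by luminescence. Finally, EC50 is fitted, or percent inhibition at 10 μM is reported above 10 μM.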

SW480 colon cancer cells = assay: Cell viability assay (CellTiter-Blue), SW480 colon cancer cells; conditions: Homo sapiens, 96 h, four days; for EC50: CellTiter-Blue; for inhibition at 10 µM: given where EC50 >10 μM, read-out: percent inhibition at 10 μM
Method in brief: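 SW480 cells (~2×10^3/well) exposed four days at 37 °C to 8-point 1:3 dilutions, 10 μM down to 0.0045 μM. Viability from resazurin reduction (CellTiter-Blue, ~3 h, Ex 560/Em 590); EC50 by non-linear regression, or percent inhibition at 10 μM where EC50 exceeds 10 μM.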

[2] = system: primary human mesenchymal stem cells (hMSCs); assay: Induction of chondrogenesis in primary human mesenchymal stem cells (hMSCs), nodule count; conditions: 144 h, 6 days; for EC50: concentration required to induce 50% levels of chondrogenesis of TGF-β3 control, read-out: Conc (nM) of 50% TGF-β3 activity; for Emax: relative to TGF-β3 (10 ng/mL) positive control, read-out: Max. Activity as % TGF-β3 activity
Experimental: Representative compounds were screened using primary human mesenchymal stem cells (hMSCs) to determine their ability to induce chondrogenesis (process by which cartilage is developed).
Primary human mesenchymal stem cells (hMSCs) were purchased from Lonza (Walkersville, Md.) and expanded in Mesenchymal Stem Cell Growth Media (Lonza). Cells between passage 3 and 6 were used for the experiments.
Each compound was dissolved in DMSO as a 10 mM stock and used to prepare compound source plates. Serial dilution (1:3, 6-point dose-response curves from 2700 nM to 10 nM) and compound transfer was performed using the ECHO 550 (Labcyte, Sunnyvale, Calif.) into 96-well clear bottom assay plates (Greiner Bio-One) with appropriate DMSO backfill for a final DMSO concentration of 0.03%. hMSCs were plated at 20,000 cells/well in 250 μL/well Incomplete Chondrogenic Induction Medium (Lonza; DMEM, dexamethasone, ascorbate, insulin-transferrin-selenium [ITS supplement], gentamycin-amphotericin [GA-1000], sodium pyruvate, proline and L-glutamine). TGF-β3 (10 ng/mL) was used as a positive control for differentiation while negative control wells were treated with 75 nL DMSO for normalization and calculating EC50 values. Cells were incubated at 37° C. and 5% CO2 for 6 days. To image chondrogenic nodules, the cells were fixed using 4% formaldehyde (Electron Microscopy Sciences), and stained with 2 μg/mL Rhodamine B (Sigma-Aldrich) and 20 μM Nile Red (Sigma-Aldrich) [Johnson K., et. al, A Stem Cell-Based Approach to Cartilage Repair, Science, (2012). 336(6082), 717-721]. The nodules imaged (4 images per well at 4× magnification) by excitation at 531 nm and emission at 625 nm and quantified using the CellInsight CX5 (Thermo Scientific). Number of nodules in each well was normalized to the average of 3 DMSO treated wells on the same plate using Excel (Microsoft Inc.). The normalized averages (fold change over DMSO) of 3 replicate wells for each compound concentration were calculated. Due to solubility limitations of some of the compounds, curve fitting was incomplete leading to inaccurate EC50 determinations.
Using TGF-β3 as a positive control, the concentration of representative compounds required to induce 50% levels of chondrogenesis is reported. In addition, the maximum activity of each compound and the respective dose that each compound reached maximum chondrogenesis activity is reported.

SMILES	EC50 [1] [nM]	EC50 (SW480 colon cancer cells) [nM]	inhibition at 10 µM (SW480 colon cancer cells) [%]	EC50 [2] [nM]	Emax [2] [%]	inhibition at 10 µM [1] [%]
CC(C)(C)C(=O)Nc1cncc(-c2ccc3[nH]nc(-c4cc5c(-c6cccc(F)c6)cccc5[nH]4)c3n2)c1 [Compound 8, N-(5-(3-(4-(3-Fluorophenyl)-1H-indol-2-yl)-1H-pyrazolo[4,3-b]pyridin-5-yl)pyridin-3-yl)pivalamide]	2930	> 10000	20.9			
CN(C)Cc1cncc(-c2ccc3[nH]nc(-c4cc5c(-c6ccc(F)cc6)cccc5[nH]4)c3n2)c1 [Compound 41, 1-(5-(3-(4-(4-Fluorophenyl)-1H-indol-2-yl)-1H-pyrazolo[4,3-b]pyridin-5-yl)pyridin-3-yl)-N,N-dimethylmethanamine]	362	1680		10	93	
Fc1ccc(-c2cccc3[nH]c(-c4n[nH]c5ccc(-c6cncnc6)nc45)cc23)cc1 [Compound 55, 3-(4-(4-Fluorophenyl)-1H-indol-2-yl)-5-(pyrimidin-5-yl)-1H-pyrazolo[4,3-b] pyridine]	1310	> 10000	18.5			
Fc1ccccc1-c1cccc2[nH]c(-c3n[nH]c4ccc(-c5cncc(CN6CCCCC6)c5)nc34)cc12 [Compound 71, 3-(4-(2-Fluorophenyl)-1H-indol-2-yl)-5-(5-(piperidin-1-ylmethyl)pyridin-3-yl)-1H-pyrazolo[4,3-b]pyridine]	663	1060		100	96	
Fc1ccccc1-c1cccc2[nH]c(-c3n[nH]c4ccc(-c5cncc(CNCc6ccccc6)c5)nc34)cc12 [Compound 80, N-Benzyl-1-(5-(3-(4-(2-fluorophenyl)-1H-indol-2-yl)-1H-pyrazolo[4,3-b]pyridin-5-yl)pyridin-3-yl)methanamine]	> 10000	> 10000	18.5			44
c1cncc(-c2ccc3[nH]nc(-c4cc5c(-c6cccnc6)cccc5[nH]4)c3n2)c1 [Compound 88, 5-(Pyridin-3-yl)-3-(4-(pyridin-3-yl)-1H-indol-2-yl)-1H-pyrazolo[4,3-b] pyridine]	185	775		900	386	
CN(C)Cc1cncc(-c2ccc3[nH]nc(-c4cc5c(-c6cccnc6)cccc5[nH]4)c3n2)c1 [Compound 97, N,N-Dimethyl-1-(5-(3-(4-(pyridin-3-yl)-1H-indol-2-yl)-1H-pyrazolo[4,3-b]pyridin-5-yl)pyridin-3-yl)methanamine]	415	801			36	
Nc1cncc(-c2ccc3[nH]nc(-c4cc5c(-c6ccncc6)cccc5[nH]4)c3n2)c1 [Compound 115, 5-(3-(4-(Pyridin-4-yl)-1H-indol-2-yl)-1H-pyrazolo[4,3-b]pyridin-5-yl) pyridin-3-amine]	67	218		900	165	
Cc1ccncc1-c1ccc2[nH]nc(-c3cc4c(-c5ccncc5)cccc4[nH]3)c2n1 [Compound 117, 5-(4-Methylpyridin-3-yl)-3-(4-(pyridin-4-yl)-1H-indol-2-yl)-1H-pyrazolo [4,3-b]pyridine]	299	696		900	703	
c1cc(-c2ccncc2)c2cc(-c3n[nH]c4ccc(-c5cncc(CN6CCCCC6)c5)nc34)[nH]c2c1 [Compound 127, 5-(5-(Piperidin-1-ylmethyl)pyridin-3-yl)-3-(4-(pyridin-4-yl)-1H-indol-2-yl)-1H-pyrazolo[4,3-b]pyridine]	5160	1920		2700	151	
c1cc(-c2ccncc2)c2cc(-c3n[nH]c4ccc(-c5cncc(CNCC6CCCC6)c5)nc34)[nH]c2c1 [Compound 137, 1-Cyclopentyl-N-((5-(3-(4-(pyridin-4-yl)-1H-indol-2-yl)-1H-pyrazolo[4,3-b]pyridin-5-yl)pyridin-3-yl)methyl)methanamine]	7160	> 10000	14.7			
c1ccc(-c2ccc3[nH]nc(-c4cc5c(-c6ccncc6)cccc5[nH]4)c3n2)nc1 [Compound 140, 5-(Pyridin-2-yl)-3-(4-(pyridin-4-yl)-1H-indol-2-yl)-1H-pyrazolo[4,3-b] pyridine]	3060	> 10000	33.4			
c1ccc(-c2ccc3[nH]nc(-c4cc5c(N6CCCCC6)cccc5[nH]4)c3n2)nc1 [Compound 196, 3-(4-(Piperidin-1-yl)-1H-indol-2-yl)-5-(pyridin-2-yl)-1H-pyrazolo[4,3-b] pyridine]	> 10000	> 10000	10.4			6.2
c1cncc(-c2ccc3[nH]nc(-c4cc5ccccc5[nH]4)c3n2)c1 [Compound 256, 3-(1H-Indol-2-yl)-5-(pyridin-3-yl)-1H-pyrazolo[4,3-b]pyridine]	1300	> 10000	37.6			
FC1(F)CCN(Cc2cncc(-c3ccc4[nH]nc(-c5cc6c(-c7cccs7)cccc6[nH]5)c4n3)c2)C1 [Compound 362, 5-(5-((3,3-Difluoropyrrolidin-1-yl)methyl)pyridin-3-yl)-3-(4-(thiophen-2-yl)-1H-indol-2-yl)-1H-pyrazolo[4,3-b]pyridine]	3240	> 10000	15.3			
Nc1cncc(-c2ccc3[nH]nc(-c4cc5ncccc5[nH]4)c3n2)c1 [Compound 507, 5-(3-(1H-Pyrrolo[3,2-b]pyridin-2-yl)-1H-pyrazolo[4,3-b]pyridin-5-yl) pyridin-3-amine]	256	965				
Fc1cccc(-c2cccc3[nH]c(-c4n[nH]c5ccc(-c6cncc(OCc7ccccc7)c6)nc45)cc23)c1 [Compound 546, 5-(5-(Benzyloxy)pyridin-3-yl)-3-(4-(3-fluorophenyl)-1H-indol-2-yl)-1H-pyrazolo[4,3-b]pyridine]	2660	> 10000	18.1			
c1cc(-c2ccoc2)c2cc(-c3n[nH]c4ccc(-c5cn[nH]c5)nc34)[nH]c2c1 [Compound 711, 3-(4-(Furan-3-yl)-1H-indol-2-yl)-5-(1H-pyrazol-4-yl)-1H-pyrazolo[4,3-b] pyridine]	8160	> 10000	12.4			
c1cc(-c2ccoc2)c2cc(-c3n[nH]c4ccc(-c5cncc(OC6CCCCC6)c5)nc34)[nH]c2c1 [Compound 715, 5-(5-(Cyclohexyloxy)pyridin-3-yl)-3-(4-(furan-3-yl)-1H-indol-2-yl)-1H-pyrazolo[4,3-b]pyridine]	6490	> 10000	10.4			
Oc1cncc(-c2ccc3[nH]nc(-c4cc5c(-c6cccs6)cccc5[nH]4)c3n2)c1 [Compound 737, 5-(3-(4-(Thiophen-2-yl)-1H-indol-2-yl)-1H-pyrazolo[4,3-b]pyridin-5-yl) pyridin-3-ol]	> 10000	> 10000	0			3.3
c1cnc2cc(-c3n[nH]c4ccc(-c5cn[nH]c5)nc34)[nH]c2c1 [Compound 1021, 5-(1H-Pyrazol-4-yl)-3-(1H-pyrrolo[3,2-b]pyridin-2-yl)-1H-pyrazolo[4,3-b] pyridine]	767	1290				
Oc1cncc(-c2ccc3[nH]nc(-c4cc5ncccc5[nH]4)c3n2)c1 [Compound 1031, 5-(3-(1H-Pyrrolo[3,2-b]pyridin-2-yl)-1H-pyrazolo[4,3-b]pyridin-5-yl) pyridin-3-ol]	883	4380				
